Activity calls are given as the source filed them. The calls are words filed in the database; no cut-off is given here.
Columns and labels:
[1] = biological target: Cannabinoid receptor 1 (Homo sapiens, UniProt P21554); experiment: Displacement of [3H]CP55940 from human recombinant CB1 receptor expressed in CHO cells after 2 hrs by liquid scintillation counting; type: cell-based
[2] = biological target: Cannabinoid receptor 2 (Homo sapiens) (UniProt P34972); experiment: Displacement of [3H]CP55940 from human recombinant CB2 receptor expressed in CHO cells at 10 uM after 2 hrs by liquid scintillation counting; type: cell-based
Cannabinoid receptor 2 (Homo sapiens), sequence (P34972 whole entry): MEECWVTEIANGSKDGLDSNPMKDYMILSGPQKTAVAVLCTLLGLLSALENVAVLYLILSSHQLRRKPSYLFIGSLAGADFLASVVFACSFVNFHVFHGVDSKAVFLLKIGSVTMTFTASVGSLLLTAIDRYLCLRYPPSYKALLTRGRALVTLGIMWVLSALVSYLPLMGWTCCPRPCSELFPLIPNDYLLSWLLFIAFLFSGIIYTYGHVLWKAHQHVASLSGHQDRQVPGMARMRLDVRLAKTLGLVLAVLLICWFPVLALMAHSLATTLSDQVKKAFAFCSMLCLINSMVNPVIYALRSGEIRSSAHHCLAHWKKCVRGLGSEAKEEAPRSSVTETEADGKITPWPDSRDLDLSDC

Cannabinoid receptor 1, sequence (P21554 whole entry): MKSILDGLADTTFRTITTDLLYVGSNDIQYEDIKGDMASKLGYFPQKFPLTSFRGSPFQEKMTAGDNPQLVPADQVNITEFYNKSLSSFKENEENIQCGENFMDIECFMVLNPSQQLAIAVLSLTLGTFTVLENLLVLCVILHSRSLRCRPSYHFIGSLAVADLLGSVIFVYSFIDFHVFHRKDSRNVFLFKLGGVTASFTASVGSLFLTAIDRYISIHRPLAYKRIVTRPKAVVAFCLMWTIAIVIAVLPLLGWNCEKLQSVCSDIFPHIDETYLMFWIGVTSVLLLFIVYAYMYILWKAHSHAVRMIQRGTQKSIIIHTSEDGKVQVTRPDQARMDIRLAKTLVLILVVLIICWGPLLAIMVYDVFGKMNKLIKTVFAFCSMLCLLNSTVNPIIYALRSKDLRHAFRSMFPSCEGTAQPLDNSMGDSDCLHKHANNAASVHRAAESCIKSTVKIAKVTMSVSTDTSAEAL

With C=CC(C)(C)[C@@]12C[C@H]3C(=O)N4[C@@H](C[C@@]5(C(C)(C)C=C)c6ccccc6N[C@@H]45)C(=O)N3[C@@H]1Nc1ccccc12 [AMAUROMINE] the Ki [1] was 178 nM and the Activity [2] was “inactive”.

Source: ChEMBL document CHEMBL2021922, “Identification of a Potent and Selective Cannabinoid CB1 Receptor Antagonist from Auxarthron reticulatum” (ACS Med Chem Lett, 2011)
